Measurements published in article PMC5617326, “Structural Basis of Catalysis in the Bacterial Monoterpene Synthases Linalool Synthase and 1,8-Cineole Synthase” (ACS Catalysis, 2017).

Key:
[1] = molecular target: T1, bCinS; 1,8-cineole synthase (Streptomyces clavuligerus, UniProt B5GMG2); experiment: X-ray crystal structure, FGPP soaked into FNPP co-crystal; EPR with Mn2+; format: binding; settings: 1.51 A; partial exchange, mixed FNPP/FGPP occupancy; three Mg2+ (third partly occupied); active site
T1 construct: gene cnsA; full-length codon-optimized gene in pETM11, N-terminal 6xHis tag and TEV site, tag cleaved; E. coli ArcticExpress (DE3); ~330 residues; dimer

[2] = molecular target: T2, bLinS; linalool synthase; linalool/nerolidol synthase (Streptomyces clavuligerus, UniProt D5SL78); experiment: X-ray crystal structure, co-crystal; EPR with Mn2+; format: binding; settings: 1.82 A; FGPP in monomer A only; one Mg2+; noncatalytic mode suggested; pH 7.5
T2 construct: gene SCLAV_p1185; full-length codon-optimized gene in pETM11, N-terminal 6xHis tag and TEV site, tag cleaved; E. coli ArcticExpress (DE3); ~330 residues; two molecules in asymmetric unit
T2 sequence (D5SL78 1-329): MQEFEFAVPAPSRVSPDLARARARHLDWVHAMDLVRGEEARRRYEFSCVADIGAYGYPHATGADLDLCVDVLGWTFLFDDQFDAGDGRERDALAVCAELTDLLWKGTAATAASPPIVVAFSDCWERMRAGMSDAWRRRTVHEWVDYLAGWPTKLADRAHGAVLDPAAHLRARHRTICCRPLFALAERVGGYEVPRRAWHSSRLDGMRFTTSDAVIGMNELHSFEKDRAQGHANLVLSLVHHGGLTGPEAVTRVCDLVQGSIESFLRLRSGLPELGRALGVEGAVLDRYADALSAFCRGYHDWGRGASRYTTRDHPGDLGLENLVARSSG

[3] = molecular target: T2, bLinS; linalool synthase; linalool/nerolidol synthase; experiment: product analysis by GC-MS in engineered E. coli; chiral GC; format: cell-based; settings: host-made FPP in E. coli expressing bLinS; product trans-nerolidol

T1 sequence (B5GMG2 whole entry): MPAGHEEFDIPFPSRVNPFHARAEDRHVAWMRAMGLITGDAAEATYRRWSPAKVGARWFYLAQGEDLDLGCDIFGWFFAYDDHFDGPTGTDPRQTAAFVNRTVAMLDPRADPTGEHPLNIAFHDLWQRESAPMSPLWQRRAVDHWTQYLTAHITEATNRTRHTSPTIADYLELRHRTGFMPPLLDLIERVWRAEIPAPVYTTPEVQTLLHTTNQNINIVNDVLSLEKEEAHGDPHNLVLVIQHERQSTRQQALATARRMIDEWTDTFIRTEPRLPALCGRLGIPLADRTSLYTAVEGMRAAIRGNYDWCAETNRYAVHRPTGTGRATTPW

| SMILES | X-ray crystal structure, FGPP soaked into FNPP co-crystal; EPR with Mn2+ [1] | X-ray crystal structure, co-crystal; EPR with Mn2+ [2] | product analysis by GC-MS in engineered E. coli; chiral GC [3] |
| --- | --- | --- | --- |
| CC(C)=CCC/C(C)=C(\F)COP(=O)(O)OP(=O)(O)O [FGPP, 2-fluorogeranyl pyrophosphate] | Soaking of the bCinS-FNPP crystals with FGPP led to the partial exchange | clear electron density corresponding to FGPP is only present in monomer A | – |
| CC(C)=CCC/C(C)=C/CC/C(C)=C/COP(=O)(O)OP(=O)(O)O [FPP, farnesyl pyrophosphate] | – | – | Strains containing bLinS were able to convert FPP to nerolidol |
